In ChEMBL document CHEMBL5649169 (ChemMedChem, 2018):

What was measured:
[1] = biological target: Heat shock protein HSP 90-beta (Homo sapiens) (UniProt P08238)
[2] = biological target: Tyrosine-protein kinase ABL2 (Homo sapiens) (UniProt P42684)
[3] = biological target: Serine/threonine-protein kinase mTOR (Homo sapiens) (UniProt P42345)
[4] = biological target: Sarcoplasmic/endoplasmic reticulum calcium ATPase 2 (Homo sapiens) (UniProt P16615)
[5] = biological target: Heat shock cognate 71 kDa protein (Homo sapiens) (UniProt P11142)
[6] = biological target: Hsp90 co-chaperone Cdc37 (Homo sapiens) (UniProt Q16543)
[7] = biological target: AP-2 complex subunit beta (Homo sapiens) (UniProt P63010)
[8] = biological target: ATP-dependent 6-phosphofructokinase, liver type (Homo sapiens) (UniProt P17858)
Homo sapiens [9] = organism: Homo sapiens
[10] = biological target: Transferrin receptor protein 1 (Homo sapiens) (UniProt P02786)
[11] = biological target: Coatomer subunit epsilon (Homo sapiens) (UniProt O14579)
Chain of Coatomer subunit epsilon (Homo sapiens) (O14579 whole entry): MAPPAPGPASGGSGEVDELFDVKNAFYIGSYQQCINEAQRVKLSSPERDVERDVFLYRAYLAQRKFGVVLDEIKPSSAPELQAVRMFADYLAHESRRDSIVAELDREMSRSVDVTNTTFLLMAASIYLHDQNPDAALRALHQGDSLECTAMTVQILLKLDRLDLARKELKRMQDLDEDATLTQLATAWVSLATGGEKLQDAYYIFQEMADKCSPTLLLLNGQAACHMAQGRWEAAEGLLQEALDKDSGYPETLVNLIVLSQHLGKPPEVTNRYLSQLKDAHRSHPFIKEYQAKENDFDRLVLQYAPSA

[12] = biological target: Constitutive coactivator of PPAR-gamma-like protein 1 (Homo sapiens) (UniProt Q9NZB2)
[13] = biological target: Serine/threonine-protein kinase Nek3 (Homo sapiens) (UniProt P51956)
[14] = biological target: DNA topoisomerase 1 (Homo sapiens) (UniProt P11387)
[15] = biological target: NADH dehydrogenase [ubiquinone] 1 alpha subcomplex assembly factor 4 (Homo sapiens) (UniProt Q9P032)
Chain of NADH dehydrogenase [ubiquinone] 1 alpha subcomplex assembly factor 4 (Homo sapiens) (Q9P032 whole entry, one chain of several): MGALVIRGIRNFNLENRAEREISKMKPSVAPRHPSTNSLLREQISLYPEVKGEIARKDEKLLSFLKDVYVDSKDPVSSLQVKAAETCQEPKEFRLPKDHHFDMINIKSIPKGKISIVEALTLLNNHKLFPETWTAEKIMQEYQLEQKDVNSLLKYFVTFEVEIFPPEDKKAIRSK

[16] = biological target: Protein transport protein Sec16A (Homo sapiens) (UniProt O15027)
[17] = biological target: Stalled ribosome sensor GCN1 (Homo sapiens) (UniProt Q92616)
[18] = biological target: Serine/threonine-protein kinase MRCK beta (Homo sapiens) (UniProt Q9Y5S2)
[19] = biological target: Cytochrome b-c1 complex subunit 1, mitochondrial (Homo sapiens) (UniProt P31930)
Chain of Cytochrome b-c1 complex subunit 1, mitochondrial (Homo sapiens) (P31930 whole entry, one chain of several): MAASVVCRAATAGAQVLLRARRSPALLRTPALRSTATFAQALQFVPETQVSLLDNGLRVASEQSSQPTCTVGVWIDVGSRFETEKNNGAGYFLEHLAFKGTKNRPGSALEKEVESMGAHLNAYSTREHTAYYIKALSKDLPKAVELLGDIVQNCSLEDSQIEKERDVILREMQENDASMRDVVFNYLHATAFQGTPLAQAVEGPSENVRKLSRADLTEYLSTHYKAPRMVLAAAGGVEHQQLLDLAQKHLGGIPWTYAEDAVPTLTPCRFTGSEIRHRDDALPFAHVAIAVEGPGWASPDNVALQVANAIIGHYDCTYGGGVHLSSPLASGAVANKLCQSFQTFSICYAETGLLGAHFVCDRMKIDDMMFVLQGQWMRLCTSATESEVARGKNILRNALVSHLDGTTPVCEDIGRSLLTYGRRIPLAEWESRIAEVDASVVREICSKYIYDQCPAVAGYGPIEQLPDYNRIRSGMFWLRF

Septin-9 (Homo sapiens) = Septin-9 (Homo sapiens) (UniProt Q9UHD8)
Plectin (Homo sapiens) = Plectin (Homo sapiens) (UniProt Q15149)
[20] = biological target: High affinity nerve growth factor receptor (Homo sapiens) (UniProt P04629)
[21] = biological target: Carbamoyl-phosphate synthase [ammonia], mitochondrial (Homo sapiens) (UniProt P31327)
Homo sapiens [22] = organism: Homo sapiens; remark: listed apart in the source
[23] = biological target: Activin receptor type-1 (Homo sapiens) (UniProt Q04771)
[24] = biological target: Serine/arginine-rich splicing factor 1 (Homo sapiens) (UniProt Q07955)
[25] = biological target: 26S proteasome regulatory subunit 4 (Homo sapiens) (UniProt P62191)
Chain of 26S proteasome regulatory subunit 4 (Homo sapiens) (P62191 whole entry): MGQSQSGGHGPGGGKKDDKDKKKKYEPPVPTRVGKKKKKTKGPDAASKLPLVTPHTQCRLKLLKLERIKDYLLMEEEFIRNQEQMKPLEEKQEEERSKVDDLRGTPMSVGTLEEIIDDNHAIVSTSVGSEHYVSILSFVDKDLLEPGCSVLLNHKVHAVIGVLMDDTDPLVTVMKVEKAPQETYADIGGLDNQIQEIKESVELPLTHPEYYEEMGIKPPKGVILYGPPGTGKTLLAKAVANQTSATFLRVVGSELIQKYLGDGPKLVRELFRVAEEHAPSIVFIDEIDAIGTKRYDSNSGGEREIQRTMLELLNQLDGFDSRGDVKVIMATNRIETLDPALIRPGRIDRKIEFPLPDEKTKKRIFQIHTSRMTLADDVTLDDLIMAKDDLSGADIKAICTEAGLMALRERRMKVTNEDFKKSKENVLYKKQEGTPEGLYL

[26] = biological target: Heat shock 70 kDa protein 4 (Homo sapiens) (UniProt P34932)
[27] = biological target: Cytochrome c oxidase subunit 5A, mitochondrial (Homo sapiens) (UniProt P20674)
Chain of Cytochrome c oxidase subunit 5A, mitochondrial (Homo sapiens) (P20674 whole entry): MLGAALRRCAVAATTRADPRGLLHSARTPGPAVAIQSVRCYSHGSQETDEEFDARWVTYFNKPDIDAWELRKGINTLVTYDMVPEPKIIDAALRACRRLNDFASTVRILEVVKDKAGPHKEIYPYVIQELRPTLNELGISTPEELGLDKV

[28] = biological target: Non-selective voltage-gated ion channel VDAC3 (Homo sapiens) (UniProt Q9Y277)
[29] = biological target: Tyrosine-protein kinase ABL1 (Homo sapiens, UniProt P00519)
[30] = biological target: Staphylococcal nuclease domain-containing protein 1 (Homo sapiens) (UniProt Q7KZF4)
[31] = biological target: Integrin beta-4 (Homo sapiens) (UniProt P16144)
Chain of Integrin beta-4 (Homo sapiens) (P16144 whole entry): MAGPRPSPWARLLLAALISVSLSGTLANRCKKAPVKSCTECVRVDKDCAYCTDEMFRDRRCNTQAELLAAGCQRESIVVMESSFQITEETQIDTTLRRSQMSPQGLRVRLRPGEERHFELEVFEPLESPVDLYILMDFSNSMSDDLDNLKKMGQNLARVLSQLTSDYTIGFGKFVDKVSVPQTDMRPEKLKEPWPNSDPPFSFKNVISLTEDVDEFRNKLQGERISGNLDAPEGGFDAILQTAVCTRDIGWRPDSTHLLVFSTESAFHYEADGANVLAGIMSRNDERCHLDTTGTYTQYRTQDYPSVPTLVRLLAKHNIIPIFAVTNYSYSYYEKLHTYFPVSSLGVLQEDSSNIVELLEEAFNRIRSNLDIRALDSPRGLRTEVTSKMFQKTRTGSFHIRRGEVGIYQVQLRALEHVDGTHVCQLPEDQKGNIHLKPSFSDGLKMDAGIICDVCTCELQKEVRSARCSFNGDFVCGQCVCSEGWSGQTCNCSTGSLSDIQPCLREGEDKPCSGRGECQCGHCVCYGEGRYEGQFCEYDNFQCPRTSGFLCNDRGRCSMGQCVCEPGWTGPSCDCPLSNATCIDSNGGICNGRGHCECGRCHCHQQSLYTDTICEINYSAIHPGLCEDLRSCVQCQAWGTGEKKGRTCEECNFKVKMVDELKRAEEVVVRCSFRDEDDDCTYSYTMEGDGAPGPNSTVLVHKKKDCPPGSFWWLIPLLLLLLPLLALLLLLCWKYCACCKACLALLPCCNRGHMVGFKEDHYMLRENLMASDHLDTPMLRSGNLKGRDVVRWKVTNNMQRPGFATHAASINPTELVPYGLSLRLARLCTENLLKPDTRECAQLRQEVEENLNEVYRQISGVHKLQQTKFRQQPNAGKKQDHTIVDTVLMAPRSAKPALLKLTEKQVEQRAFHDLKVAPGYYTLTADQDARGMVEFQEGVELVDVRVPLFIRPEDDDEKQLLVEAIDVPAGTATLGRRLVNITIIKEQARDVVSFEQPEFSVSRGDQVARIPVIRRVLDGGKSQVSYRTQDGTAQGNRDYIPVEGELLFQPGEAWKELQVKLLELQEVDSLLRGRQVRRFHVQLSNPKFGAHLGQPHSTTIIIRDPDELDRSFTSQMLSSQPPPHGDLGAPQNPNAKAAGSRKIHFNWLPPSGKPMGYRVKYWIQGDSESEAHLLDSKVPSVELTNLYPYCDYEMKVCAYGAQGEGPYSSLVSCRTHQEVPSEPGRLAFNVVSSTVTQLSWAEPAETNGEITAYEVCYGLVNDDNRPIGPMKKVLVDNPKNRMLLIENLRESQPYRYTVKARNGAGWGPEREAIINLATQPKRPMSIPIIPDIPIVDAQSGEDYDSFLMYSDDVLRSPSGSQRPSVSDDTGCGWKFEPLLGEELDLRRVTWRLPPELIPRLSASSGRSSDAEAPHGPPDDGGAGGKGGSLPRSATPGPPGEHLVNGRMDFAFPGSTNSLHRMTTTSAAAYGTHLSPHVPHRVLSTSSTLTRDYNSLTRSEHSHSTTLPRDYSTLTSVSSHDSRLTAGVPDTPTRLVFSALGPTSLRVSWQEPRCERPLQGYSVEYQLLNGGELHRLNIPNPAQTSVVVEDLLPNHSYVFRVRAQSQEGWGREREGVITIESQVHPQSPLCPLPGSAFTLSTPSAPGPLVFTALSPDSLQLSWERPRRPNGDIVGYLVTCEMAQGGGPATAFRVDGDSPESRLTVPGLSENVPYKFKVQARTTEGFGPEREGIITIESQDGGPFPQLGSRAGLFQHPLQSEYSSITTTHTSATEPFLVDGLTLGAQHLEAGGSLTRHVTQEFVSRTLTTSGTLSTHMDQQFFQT

[32] = biological target: Coatomer subunit beta' (Homo sapiens) (UniProt P35606)
Chain of Coatomer subunit beta' (Homo sapiens) (P35606 whole entry): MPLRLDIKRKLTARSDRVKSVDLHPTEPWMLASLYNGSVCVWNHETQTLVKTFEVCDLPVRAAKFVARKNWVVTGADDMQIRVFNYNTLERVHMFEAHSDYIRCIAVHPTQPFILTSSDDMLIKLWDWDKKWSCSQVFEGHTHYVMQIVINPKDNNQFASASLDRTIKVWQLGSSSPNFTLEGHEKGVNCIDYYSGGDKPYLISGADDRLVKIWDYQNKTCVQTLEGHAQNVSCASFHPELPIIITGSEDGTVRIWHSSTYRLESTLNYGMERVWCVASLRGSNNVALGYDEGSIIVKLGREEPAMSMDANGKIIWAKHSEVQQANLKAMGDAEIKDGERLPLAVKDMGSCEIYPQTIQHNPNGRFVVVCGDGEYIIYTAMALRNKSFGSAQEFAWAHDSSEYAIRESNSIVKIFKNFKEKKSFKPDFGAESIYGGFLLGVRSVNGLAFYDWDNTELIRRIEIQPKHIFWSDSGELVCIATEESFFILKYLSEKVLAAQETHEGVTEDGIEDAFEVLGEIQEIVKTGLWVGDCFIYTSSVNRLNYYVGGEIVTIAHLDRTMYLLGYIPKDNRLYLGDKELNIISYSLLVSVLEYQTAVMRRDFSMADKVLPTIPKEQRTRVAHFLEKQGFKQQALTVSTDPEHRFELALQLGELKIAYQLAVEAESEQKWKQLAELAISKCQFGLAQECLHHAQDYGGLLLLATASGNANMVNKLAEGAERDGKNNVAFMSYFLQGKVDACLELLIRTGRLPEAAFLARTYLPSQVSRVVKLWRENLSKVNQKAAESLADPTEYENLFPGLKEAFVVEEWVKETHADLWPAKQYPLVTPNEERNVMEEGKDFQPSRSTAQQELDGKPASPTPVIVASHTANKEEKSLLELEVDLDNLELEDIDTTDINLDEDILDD

[33] = biological target: AP-3 complex subunit sigma-1 (Homo sapiens) (UniProt Q92572)
Chain of AP-3 complex subunit sigma-1 (Homo sapiens) (Q92572 whole entry, one chain of several): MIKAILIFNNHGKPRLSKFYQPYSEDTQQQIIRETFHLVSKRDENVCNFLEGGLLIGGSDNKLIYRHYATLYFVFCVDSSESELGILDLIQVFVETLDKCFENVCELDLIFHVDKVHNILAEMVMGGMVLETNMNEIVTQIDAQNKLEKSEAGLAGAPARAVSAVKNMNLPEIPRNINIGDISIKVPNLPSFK

Derlin-1 (Homo sapiens) = Derlin-1 (Homo sapiens) (UniProt Q9BUN8)
[34] = biological target: T-complex protein 1 subunit eta (Homo sapiens) (UniProt Q99832)
[35] = biological target: Propionyl-CoA carboxylase alpha chain, mitochondrial (Homo sapiens) (UniProt P05165)
[36] = biological target: Aminopeptidase B (Homo sapiens) (UniProt Q9H4A4)
[37] = biological target: Acylamino-acid-releasing enzyme (Homo sapiens) (UniProt P13798)
[38] = biological target: HLA class I histocompatibility antigen, A alpha chain (Homo sapiens) (UniProt P04439)
[39] = biological target: Proteasome adapter and scaffold protein ECM29 (Homo sapiens) (UniProt Q5VYK3)
[40] = biological target: Lon protease homolog, mitochondrial (Homo sapiens) (UniProt P36776)
[41] = biological target: Large ribosomal subunit protein eL33 (Homo sapiens) (UniProt P18077)
[42] = biological target: PAT complex subunit CCDC47 (Homo sapiens) (UniProt Q96A33)
Chain of PAT complex subunit CCDC47 (Homo sapiens) (Q96A33 whole entry, one chain of several): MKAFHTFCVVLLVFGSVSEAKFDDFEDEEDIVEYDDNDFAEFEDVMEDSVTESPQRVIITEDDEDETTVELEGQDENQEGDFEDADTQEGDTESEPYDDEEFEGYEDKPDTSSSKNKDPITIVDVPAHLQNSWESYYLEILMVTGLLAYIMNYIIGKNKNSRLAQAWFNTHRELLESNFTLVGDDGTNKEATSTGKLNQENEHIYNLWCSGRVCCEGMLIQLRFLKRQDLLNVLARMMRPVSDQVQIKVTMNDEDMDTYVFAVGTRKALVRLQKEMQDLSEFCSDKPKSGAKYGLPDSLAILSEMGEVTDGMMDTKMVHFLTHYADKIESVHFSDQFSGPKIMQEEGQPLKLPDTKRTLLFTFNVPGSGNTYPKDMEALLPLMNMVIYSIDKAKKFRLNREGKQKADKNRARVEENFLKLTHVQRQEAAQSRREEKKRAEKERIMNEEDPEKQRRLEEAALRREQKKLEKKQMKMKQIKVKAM

[43] = biological target: Calcium load-activated calcium channel (Homo sapiens) (UniProt Q9UM00)
[44] = biological target: MAP kinase-activated protein kinase 2 (Homo sapiens) (UniProt P49137)
Note: assay method not described here.

## Cc1ccc(C(=O)Nc2cccc(C(F)(F)F)c2)cc1Nc1nc(-c2cccnc2)nc2c1cnn2C
[1]
  ED50: 0.000546 µM
[2]
  ED50: 1.06 µM
[3]
  ED50: 11.6 µM
[4]
  ED50: 9.67 µM
[5]
  ED50: 0.121 µM
[6]
  ED50: 3.55 µM
[7]
  ED50: 11.9 µM
[8]
  ED50: 111 µM
Homo sapiens [9]
  ED50: 16.8 µM
[10]
  ED50: 0.1 µM
[11]
  ED50: 0.787 µM
[12]
  ED50: 4.66 µM
[13]
  ED50: 4.18 µM
[14]
  ED50: 0.0425 µM
[15]
  ED50: 0.0015 µM
[16]
  ED50: 0.00675 µM
[17]
  ED50: 0.085 µM
[18]
  ED50: 0.641 µM
[19]
  ED50: 65.5 µM
Septin-9 (Homo sapiens)
  ED50: 8.65 µM
Plectin (Homo sapiens)
  ED50: 11.9 µM
[20]
  ED50: 0.0169 µM
[21]
  ED50: 11.8 µM
Homo sapiens [22]
  ED50: 0.018 µM
[23]
  ED50: 0.00315 µM
[24]
  ED50: 9.12 µM
[25]
  ED50: 91.8 µM
[26]
  ED50: 3.18 µM
[27]
  ED50: 3.62 µM
[28]
  ED50: 0.745 µM
[29]
  ED50: 1.66 µM
[30]
  ED50: 23.6 µM
[31]
  ED50: 3.51 µM
[32]
  ED50: 0.0171 µM
[33]
  ED50: 116 µM
Derlin-1 (Homo sapiens)
  ED50: 13.9 µM
[34]
  ED50: 50.3 µM
[35]
  ED50: 0.596 µM
[36]
  ED50: 0.664 µM
[37]
  ED50: 0.0282 µM
[38]
  ED50: 19000 µM
[39]
  ED50: 11 µM
[40]
  ED50: 0.575 µM
[41]
  ED50: 0.0388 µM
[42]
  ED50: 0.136 µM
[43]
  ED50: 0.0219 µM
[44]
  ED50: 0.549 µM

## Cc1ccc(C(=O)Nc2cccc(C(F)(F)F)c2)cc1Nc1nc(-c2cccnc2)nc2nn(C)cc12
[1]
  ED50: 0.083 µM
[2]
  ED50: 2.04 µM
[3]
  ED50: 0.443 µM
[4]
  ED50: 0.0232 µM
[5]
  ED50: 1.76 µM
[6]
  ED50: 0.00871 µM
[7]
  ED50: 0.331 µM
[8]
  ED50: 0.0338 µM
Homo sapiens [9]
  ED50: 0.00606 µM
[10]
  ED50: 7.34 µM
[11]
  ED50: 0.126 µM
[12]
  ED50: 0.00365 µM
[13]
  ED50: 10.7 µM
[14]
  ED50: 0.00653 µM
[15]
  ED50: 1.82 µM
[16]
  ED50: 0.0052 µM
[17]
  ED50: 0.0579 µM
[18]
  ED50: 0.00892 µM
[19]
  ED50: 0.00513 µM
Septin-9 (Homo sapiens)
  ED50: 0.109 µM
Plectin (Homo sapiens)
  ED50: 0.011 µM
[20]
  ED50: 0.773 µM
[21]
  ED50: 0.188 µM
Homo sapiens [22]
  ED50: 0.0558 µM
[23]
  ED50: 34000 µM
[24]
  ED50: 0.0562 µM
[25]
  ED50: 0.00477 µM
[26]
  ED50: 0.0777 µM
[27]
  ED50: 3250 µM
[28]
  ED50: 0.0233 µM
[29]
  ED50: 1.34 µM
[30]
  ED50: 0.57 µM
[31]
  ED50: 825 µM
[32]
  ED50: 0.291 µM
[33]
  ED50: 2.47 µM
Derlin-1 (Homo sapiens)
  ED50: 28 µM
[34]
  ED50: 0.117 µM
[35]
  ED50: 7.07 µM
[36]
  ED50: 0.0418 µM
[37]
  ED50: 3.75 µM
[38]
  ED50: 0.0554 µM
[39]
  ED50: 1.15 µM
[40]
  ED50: 0.0644 µM
[41]
  ED50: 0.0167 µM
[42]
  ED50: 40.6 µM
[43]
  ED50: 0.281 µM
[44]
  ED50: 0.0517 µM
